Tests used:
[1] = tested on: ABA induced gene expression (ABRC1-GUS) in rice aleurone cells; test: ABRC1-GUS reporter expression assay in transgenic rice embryoless half-seeds (aleurone cells); format: cell-based, rice (Oryza sativa); settings: wild type rice aleurone cells; 20 μM ABA, 24 h
Experimental: FIG. 1. FCA-overexpression enhances and FCA-RNAi suppresses ABA induced gene expression in rice aleurone cells. The reporter construct (A) ABRC1-GUS was bombarded into (B) FCA-overexpression and (C) FCA-RNAi transgenic rice embryoless half-seeds. Bars indicate GUS activities ±SE after 24 h of incubation of bombarded seeds in shooting buffer with or without 20 μM ABA.
Rice (Oryza sativa) cultivar Tainung 67 was used in this study. Rice seedlings were grown in Kimura B nutrient solution at 28° C., 16L/8D photoperiod. Barley seeds (Hordeum vulgare L. cv. Himalaya) were used in all the transient assays. Embryoless half-seeds were prepared as described (Gomez-Cadenas et al., 2001).
Rice FCA cDNA clones (GenBank Accession Numbers AK073225 and AK058419) were supplied by Rice Genome Resource Center (RGRC) of National Institute of Agricultural Sciences (NIAS). Coding region of rice FCA was amplified from FCA cDNA clone by PCR. Coding region of barley FCA was amplified from total RNA of barley seed by RT-PCR. For underexpression of FCA, nucleotide number 307-822 of rice FCA ORF and nucleotide number 1532-1945 of barley FCA ORF were amplified. All PCR products were T/A cloned into pCR8/GW/TOPO vector (Invitrogen). Sequences and orientations of inserts in vector were confirmed by sequencing. […]

[2] = tested on: ABA induced gene expression (ABRC1-GUS) in barley aleurone cells; test: Transient expression assay, ABRC1-GUS reporter, barley aleurone cells; format: cell-based, barley (Hordeum vulgare); settings: 20 μM ABA, 24 h
Description: FIG. 2. FCA alters ABA but not GA pathway in barley aleurone cells. (A) Schemes of the reporter and effector constructs used in transient expression assays. (B) FCA-overexpression enhances and (D) FCA-RNAi suppresses ABA induced gene expression in barley aleurone cells. (C and E) GA induced gene expression is not affected. The reporter construct ABRC1-GUS or Amy32b-GUS was cobombarded into barley embryoless half-seeds with (+) or without (−) effector constructs Ubi-HvFCA-RNAi or Ubi-HvFCA. Bars indicate GUS activities ±SE after 24 h of incubation of bombarded embryoless half-seeds in shooting buffer with or without 20 μM ABA or 1 μM GA.
FIG. 9. FCA-overexpression enhances ABA induced gene expression in barley aleurone cells. (A) Schemes of the reporter and effector constructs used in transient expression assays. (B) The reporter construct ABRC1-GUS was cobombarded into barley embryoless half-seeds with (+) or without (−) effector constructs Ubi-HvFCA or Ubi-OsFCA. Bars indicate GUS activities ±SE after 24 h of incubation of bombarded embryoless half-seeds in shooting buffer with (+) or without (−) 10 μM ABA.
Rice (Oryza sativa) cultivar Tainung 67 was used in this study. Rice seedlings were grown in Kimura B nutrient solution at 28° C., 16L/8D photoperiod. Barley seeds (Hordeum vulgare L. cv. Himalaya) were used in all the transient assays. […]

[3] = target: T1, VP1 (Zea mays, UniProt P26307); test: In planta two-hybrid study; format: binding
T1 sequence (P26307 1-691): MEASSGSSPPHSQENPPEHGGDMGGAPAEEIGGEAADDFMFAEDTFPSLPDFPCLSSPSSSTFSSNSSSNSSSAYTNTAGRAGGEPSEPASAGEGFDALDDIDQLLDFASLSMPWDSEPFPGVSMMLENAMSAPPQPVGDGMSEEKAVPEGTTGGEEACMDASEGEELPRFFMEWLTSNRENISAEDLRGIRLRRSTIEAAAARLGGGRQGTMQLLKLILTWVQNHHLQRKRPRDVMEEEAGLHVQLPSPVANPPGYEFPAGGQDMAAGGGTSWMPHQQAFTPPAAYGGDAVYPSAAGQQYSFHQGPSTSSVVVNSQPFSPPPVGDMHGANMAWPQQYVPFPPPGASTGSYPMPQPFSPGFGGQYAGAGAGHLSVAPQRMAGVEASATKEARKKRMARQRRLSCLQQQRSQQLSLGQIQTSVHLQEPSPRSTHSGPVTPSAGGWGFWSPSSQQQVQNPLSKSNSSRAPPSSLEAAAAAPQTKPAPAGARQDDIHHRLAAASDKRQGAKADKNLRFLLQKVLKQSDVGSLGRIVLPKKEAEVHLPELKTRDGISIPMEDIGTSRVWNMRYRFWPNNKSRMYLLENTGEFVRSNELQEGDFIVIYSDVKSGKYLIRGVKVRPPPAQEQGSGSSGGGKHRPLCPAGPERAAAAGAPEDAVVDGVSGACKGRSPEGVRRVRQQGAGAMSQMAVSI

[4] = tested on: ABI5; test: In planta two-hybrid study; format: binding

CC1=CC(=O)CC(C)(C)C1(O)/C=C/C(C)=C\C(=O)O (stereo not shown) [ABA]
ABRC1-GUS reporter induction by ABA treatment [1]: highly induced | ABRC1-GUS reporter induction by ABA treatment [2]: highly induced

B1: OsFCA: Rice FCA protein, nuclear RNA-binding protein, SEQ ID NO: 1 (protein, listed as Oryza sativa)
chain: MHRGGDRSTDPSSGPAPGSRGGGDGRFGRGPSRWSSGGGGGGSGSPPHRFSRGGGGGGGDGGGGGGGGGRFHPYRGPSDHSGGGGYRSGGGGEYGEPGSGPRHRYGSGRGDHSDHDNRNNYVKLFIGSVPRTATEDDVRPLFEEHGDVVEVALIKDRKTGEQQGCCFVKYATSEEAERAIRALHNQYTLPGAMGPIQVRYADGERERHGAIEHKLFVASLNKQATAKEIEEIFAPYGHVEDVYIMKDGMRQSRGCGFVKFSSREPALAAMSALSGNYVMRGCEQPLIIRFADPKRPRPGGSRGGPAFGGPGFSPRSDAALVIRPTANLDEPRGRHMPPDSWHPSSPRSAPHQFNNFGSDNPMAPKGSTVTSTTDTATFRPQMFSGNGSLSSQTAVPSSSHMGMNPPPMAQGHHLGGQQIPPLQKLPGLPQNFPVQLQNNQLGQPLQGPAQQIGQLQVPQSMGPGSFGQNRLSGQLPVSQPLMQQNASVSAVQVPSAVSNSMQAIPGQQHLPSNVAPQMLQQPVQQMPSQAPQLLLQQQAALQSSYQSSQQAIYQLQQQLQLMQQQQQSNLNHQQPTQGQPVQSSNPGAPNAIIPSNINTIPQQATSPAVPLTCNWTEHTSPEGFKYYYNSITRESKWDKPEEYVLYEQQQQQQQQQKLLLLQQHKQKLAMQQLQSPPQAQTHPAMQPVQQIPQAQQGQQQMQMKQQELNYTQLQTPGAIDPSRIQQGIQSAQERAWKS
Interaction with VP1 [3]: interacts with VP1 | Interaction with ABI5 [4]: not with ABI5 directly
